Measurements: US5360794A, “Disubstituted and deoxy disubstituted derivatives of α-D-mannofuranosides and β-L-gulofuranosides having anti-inflammatory and anti-proliferative activity” (Medicarb Inc., priority 1992, dated 1994)

What was measured:
[1] = test system: BUD-8 human skin fibroblast cells; assay: BUD-8 human cell line fibroblast proliferation assay; type: cell-based; conditions: estimated IC50, BUD-8 cells, 3 days, MTT
Excerpt: ii BUD-8 human cell line fibroblast proliferation assay.
The MLR assay measures the effects of a study compound on the activation and antigen presentation of T-lymphocytes, therefore determining immunomodulatory properties. The mouse spleen cell mitogen-induced blastogenesis and the BUD-8 human fibroblast proliferation assays measure the effects of the compounds of the present invention on cellular proliferation of cells involved in the pathogenesis of autoimmune diseases. These two assays are appropriate as screens to ascertain anti-inflammatory and/or autoimmune beneficial activity and are art accepted for such purposes.
The skin cell fibroblast line, BUD-8, was originally derived from the normal skin of a person and can now be obtained from the American Type Culture Collection, Rockville, Md. The concentration of the compounds which were used in this assay were: 1, 10, 30, 100, and 300 μM. The vehicle was used as the negative control. Test compounds were prepared in DMSO at a stock concentration of 300 mM. Appropriate dilutions were made in culture medium.
In this assay BUD-8 cells were collected, counted, and diluted to 2×10^4 cells/ml. 0.1 ml was plated per well to give 2×10^3 cells/well. The compounds of the present invention were diluted in culture medium to the appropriate concentrations. Aliquates of 100 μl were distributed to triplicate wells. Control wells with vehicle and wells with media were also run. After a three day incubation at 37° C. with 5% carbon dioxide, proliferation was measured by adding 20 μl of MTT (10 mg/ml in PBS) (3-[4,5-dimethyl thiazol-2-yl]-2,5-diphenyl-tetrazolium bromide) to each well. Plates were incubated for 4 hours at 37° C., after which 180 μl of 10% SDS in PBS were added. After an overnight incubation, the optical density (OD) of each well was read using a Molecular Devices microplate reader at 570-650 nm.
Duplicate cultures were also set up to measure viability. After 3 days of incubation, supernatants were assayed for lactate dehydrogenase (LDH) activity to determine the viability of the cells, which is an indication of the toxicity of the test article on the BUD-8 cells. 0.1 ml of supernatent was mixed with 0.1 ml of the LDH substrate mixture which contains 5.4×10^-2 M L(+) lactate, 6.6×10^-4 M 2-p-iodophenyl-3-p-nitrophenyl tetrazolium chloride, 2.8×10^-4 M phenazine methosulfate, 1.3×10^-3 M NAD, and 0.2M Tris buffer. pH 8.2. Plates were read immediately for 5 minutes at 490 nm using a Molecular Devices microplate reader.
The mean for each test article treated group was determined and compared to the mean of the control group. The percent change from the control was calculated, and the IC50 estimated. The criteria used to establish activity levels were:
Sixteen (16) test articles were assayed for their ability to inhibit fibroblast proliferation. The test article were added to BUD-8 cell cultures to give final concentrations of 1, 10, 30, 100, and 300 μM. The proliferation observed in the test article treated wells were compared to the DMSO control wells.

[2] = test system: various tumor cell lines (leukemia, melanoma, lung cancer, colon cancer, renal cancer, ovarian cancer, brain cancer); assay: Tumor cell line growth inhibition (average over lines of seven cancer types); type: cell-based; conditions: Log 10 values; average GI50 over tumor cell lines from seven cancer types; read-out: GI (μM) Log 10 values (Average GI50) (converted)
Experimental: The compounds of the present invention were also tested against various tumor cell lines, derived from seven cancer types. These include leukemia, melanoma, lung cancer, colon cancer, renal cancer, ovarian cancer, and brain cancer. Most of the compounds have shown significant activity in various screens, particularly against colon cancer and melanoma.

[3] = Homo sapiens, Skin fibroblast, 72 h

GI50 [2] [µM] | Molecule | IC50 [1, 3] [µM] | IC50 [1] [µM]
– | CC1(C)O[C@@H]2[C@H](O1)[C@@H](OCCCCN1CCCC1)O[C@@H]2[C@H](O)CO [Compound 29, 4'-(1-Pyrrolidinyl)butyl 2,3-O-(1-methylethylidene)-α-D-mannofuranoside] | 190 | –
11.5 | CCCCCCCCCOCCCO[C@H]1O[C@H]([C@@H](C)OCCCN(C)C)[C@@H]2OC(C)(C)O[C@H]12 [Compound 10, n-Nonyloxypropyl 2,3-O-(1-methylethylidene)-6-deoxy-5-O-(N,N-dimethylaminopropyl)-α-D-mannofuranoside] | 17 | –
– | CCCCCCCCCOCCCO[C@H]1O[C@H]([C@H](O)CN2CCOCC2)[C@@H]2OC(C)(C)O[C@H]12 [Compound 5, n-Nonyloxypropyl 2,3-O-(1-methylethylidene)-6-deoxy-6-morpholinyl-α-D-mannofuranoside] | > 200 | –
58.9 | C[C@@H](OCCCN(C)C)[C@H]1O[C@H](OCCCc2ccccc2)[C@H]2OC(C)(C)O[C@H]21 [Compound 26, Phenylpropyl 6-deoxy 2,3-O-(1-methylethylidene)-5-O-3'-(N'N'-dimethylamino-n-propyl)-α-D-mannofuranoside] | 65 | –
– | CCCCCCCCCOCCCO[C@H]1O[C@H]([C@H](O)CN2CCCCC2)[C@@H]2OC(C)(C)O[C@H]12 [Compound 4, n-Nonyloxypropyl 2,3-O-(1-methylethylidene)-6-deoxy-6-piperidinyl-α-D-mannofuranoside] | 35 | –
– | CCCCCCCCCOCCCO[C@H]1O[C@H]([C@H](C)N2CCCC2)[C@@H]2OC(C)(C)O[C@H]12 [Compound 15, n-Nonyloxypropyl 5,6-dideoxy-2,3-O-(1-methylethylidene)-5-pyrrolidinyl-β-L-gulofuranoside] | 170 | –
9.12 | CCCCCCCCCOCCCO[C@H]1O[C@H]([C@H](O)CN2CCCC2)[C@@H]2OC(C)(C)O[C@H]12 [Compound 3, n-Nonyloxypropyl 2,3-O-(1-methylethylidene)-6-deoxy-pyrrolidinyl-α-D-mannofuranoside] | 18 | –
– | CCCCCCCCCOCCCO[C@H]1O[C@H]([C@H](O)CN2CCCCCC2)[C@@H]2OC(C)(C)O[C@H]12 [Compound 6, n-Nonyloxypropyl 2,3-O-(1-methylethylidene)-6-deoxy-6-hexamethyleneimino-α-D-mannofuranoside] | 38 | –
– | C[C@@H](OCCN1CCCC1)[C@H]1O[C@H](OCCCc2ccccc2)[C@H]2OC(C)(C)O[C@H]21 [Compound 27, Phenylpropyl 6-deoxy 2,3-O-(1-methylethylidene)-5-O-(N'-ethylpyrrolidinyl)-α-D-mannofuranoside] | 148 | –
– | CCCCCCCCCOCCCO[C@H]1O[C@H]([C@@H](C)OCCN2CCCC2)[C@@H]2OC(C)(C)O[C@H]12 [Compound 12, n-Nonyloxypropyl 2,3-O-(1-methylethylidene)-6-deoxy-5-O-(N'-ethylpyrrolidinyl)-α-D-mannofuranoside] | 42 | –
– | n-Nonyloxypropyl 2,3-O-(1-methylethylidene)-6-deoxy-6-aminothylpyrrolidinyl-α-D-mannofuranoside [Compound 7] | – | 105
– | CC1(C)O[C@@H]2[C@H](O1)[C@@H](OCCCc1ccccc1)O[C@@H]2[C@H](O)CNCCCN1CCCC1 [Compound 22, Phenylpropyl 6-deoxy 2,3-O-(1-methylethylidene)-6-aminopropylpyrrolidinyl-α-D-mannofuranoside] | 16 | –
87.1 | CC1(C)O[C@@H]2[C@H](O1)[C@@H](OCCCc1ccccc1)O[C@@H]2[C@H](O)CN1CCCC1 [Compound 20, Phenylpropyl 6-deoxy 2,3-O-(1-methylethylidene)-6-pyrrolidinyl-α-D-mannofuranoside] | > 300 | –
7.41 | CCCCCCCNC[C@@H](O)[C@H]1O[C@H](OCCCc2ccccc2)[C@H]2OC(C)(C)O[C@H]21 [Compound 21, Phenylpropyl 6-deoxy 2,3-O-(1-methylethylidene)-6-heptylamino-α-D-mannofuranoside] | 19 | –
2.29 | CCCCCCCCCOCCCO[C@H]1O[C@H]([C@H](O)CNCCCCCCC)[C@@H]2OC(C)(C)O[C@H]12 [Compound 8, n-Nonyloxypropyl 2,3-(1-methylethylidene)-6-deoxy-6-aminoheptyl-α-D-mannofuranoside] | 16 | –
95.5 | C[C@@H]([C@H]1O[C@H](OCCCc2ccccc2)[C@H]2OC(C)(C)O[C@H]21)N1CCCC1 [Compound 24, Phenylpropyl 5,6-dideoxy 2,3-O-(1-methylethylidene)-5-pyrrolidinyl-β-L-gulofuranoside] | 225 | –
